Several values for one entry are separate records, joined by “and”; a condition that tells them apart may be missing. Identical values can stand only once.
Key:
wild-type plants = settings: plants not expressing D-amino acid oxidase; cited from earlier work
[1] = test system: immature embryos from spring barley variety Golden Promise; assay: In vitro germination bioassay of immature embryos on medium with D-serine or D-alanine; type: cell-based, barley (Hordeum vulgare L.); settings: for Immature Embryos (%) germinated in vitro: scored after 14 days; for concentration lethal in the bioassay: immature embryo germination; for concentration above which seedlings were susceptible to the selection: seedlings from embryos isolated without endosperms
Description: In order to establish effective concentrations of D-Serine and D-Alanine on inhibiting growth of tissue cultured barley cells, a bioassay system using immature embryos was applied. Immature embryos from spring barley variety Golden Promise 2 mm in length were dissected onto germination PAW-5 hormone free medium with D-serine or D-alanine in range of concentrations between 0 and 5 mM and maintained at 25° C. with a 16 h photoperiod. The number of germinated embryos with well-developed shoots and brunched roots were scored after 14 days.

[2] = test system: immature embryos / embryogenic callus from Golden Promise; assay: Agrobacterium-mediated barley transformation with pRLM167 or pRLM205 (dsdA, dao1, PAT), PAB media, selection on D-Serine or bialaphos; type: cell-based, barley (Hordeum vulgare L.)
[3] = test system: immature embryos / embryogenic callus from Golden Promise; assay: Agrobacterium-mediated barley transformation with pRLM166 (dsdA), PAW media, selection on D-Serine; type: cell-based, barley (Hordeum vulgare L.); settings: construct pRLM166, selection 5 mM D-Serine
[4] = 0.5 mM in PAW-5 hormone free medium
[5] = 1 mM in PAW-5 hormone free medium
[6] = 2 mM in PAW-5 hormone free medium
[7] = 5 mM in PAW-5 hormone free medium
[8] = construct pRLM167, selection 5 mM D-Serine or 5 mg/l bialaphos

## C[C@@H](N)C(=O)O [D-alanine]
wild-type plants
  toxicity to wild-type plants: highly phytoptoxic to plants
[1]; [4]
  Immature Embryos (%) germinated in vitro: 37%
[1]; [5]
  Immature Embryos (%) germinated in vitro: 0%
[1]; [6]
  Immature Embryos (%) germinated in vitro: 0%
[1]; [7]
  Immature Embryos (%) germinated in vitro: 0%
[1]
  concentration lethal in the bioassay: 1 mM
  concentration above which seedlings were susceptible to the selection: > 1 mM

## CC[C@@H](C)[C@@H](N)C(=O)O [D-isoleucine]
wild-type plants
  toxicity to wild-type plants: not toxic to wild-type plants

## N[C@H](CO)C(=O)O [D-serine]
wild-type plants
  toxicity to wild-type plants: highly phytoptoxic to plants
[2]; [8]
  TE % (Transformation Efficiency, % of transgenic plants out of the explants): 4.6%
[2]; construct pRLM205 (dao1), selection 5 mM D-Serine
  TE % (Transformation Efficiency, % of transgenic plants out of the explants): 3.6%
[3]
  TE % (Transformation Efficiency, % of transgenic plants out of the explants): 2.2% and 2.1%
[1]; [4]
  Immature Embryos (%) germinated in vitro: 49%
[1]; [5]
  Immature Embryos (%) germinated in vitro: 17%
[1]; [6]
  Immature Embryos (%) germinated in vitro: 0%
[1]; [7]
  Immature Embryos (%) germinated in vitro: 0%
[1]
  concentration lethal in the bioassay: 2 mM
  concentration above which seedlings were susceptible to the selection: higher than 2 mM

## CC(C)[C@@H](N)C(=O)O [D-valine]
wild-type plants
  toxicity to wild-type plants: not toxic to wild-type plants

## C[C@H](NC(=O)[C@H](C)NC(=O)[C@@H](N)CCP(C)(=O)O)C(=O)O [bialaphos]
[2]; [8]
  TE % (Transformation Efficiency, % of transgenic plants out of the explants): 3.4%
